Non-standard residues stand in square brackets, D forms with d. Residues, ends and D or L forms follow the SMILES beside them. *: point of attachment. Hyp = O=C(O)[C@@H]1C[C@@H](O)CN1; NMeD = CN[C@@H](CC(=O)O)C(=O)O; NMeL = CN[C@@H](CC(C)C)C(=O)O; βNA = c1ccc2cc(N*)ccc2c1; Boc = CC(C)(C)OC(=O)*; Aib = CC(C)(N)C(=O)O; βAla = NCCC(=O)O
What follows are compounds tested against T1, General amino-acid permease GAP1 (Saccharomyces cerevisiae) (UniProt P19145). Details: sigma1278b, at 5 mM.
T1 sequence (whole entry): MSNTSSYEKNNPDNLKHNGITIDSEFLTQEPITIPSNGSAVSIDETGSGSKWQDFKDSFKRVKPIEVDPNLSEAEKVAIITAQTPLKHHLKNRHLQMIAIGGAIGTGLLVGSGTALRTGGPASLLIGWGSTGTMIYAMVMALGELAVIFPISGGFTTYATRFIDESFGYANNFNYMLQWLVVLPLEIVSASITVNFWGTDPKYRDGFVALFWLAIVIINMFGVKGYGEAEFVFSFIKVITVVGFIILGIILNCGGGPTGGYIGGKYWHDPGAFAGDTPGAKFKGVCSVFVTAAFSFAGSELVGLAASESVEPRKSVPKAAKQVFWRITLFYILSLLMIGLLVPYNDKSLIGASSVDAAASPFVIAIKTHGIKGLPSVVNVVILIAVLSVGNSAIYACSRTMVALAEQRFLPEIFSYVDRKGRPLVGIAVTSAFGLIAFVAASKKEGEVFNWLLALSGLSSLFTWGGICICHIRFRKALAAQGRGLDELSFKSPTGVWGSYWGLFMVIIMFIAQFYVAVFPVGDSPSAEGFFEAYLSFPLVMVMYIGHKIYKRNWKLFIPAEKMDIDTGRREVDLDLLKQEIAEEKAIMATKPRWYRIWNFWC
Description: Inhibition of nitrogen-starved wild type sigma1278b yeast Gap1-mediated amino acid uptake at 5 mM after 60 secs relative to L-citrulline

Row | inhibition | SMILES
1 | 15% | N[C@@H](CCC(=O)O)C(=O)N[C@@H](Cc1ccc(O)cc1)C(=O)N[C@@H](CCC(=O)O)C(=O)O (H-Glu-Tyr-Glu-OH)
2 | < 15% | CC(C)C[C@H](NC(=O)[C@@H]1C[C@@H](O)CN1)C(=O)O (H-[Hyp]-Leu-OH)
3 | < 15% | NCC(=O)N[C@@H](Cc1cnc[nH]1)C(=O)O (H-Gly-His-OH)
4 | < 15% | CN[C@@H](CC(C)C)C(=O)NCC(=O)O (H-[NMeL]-Gly-OH)
5 | > 30% | CC(C)C[C@H](NC(=O)[C@@H](N)CC(C)C)C(=O)NCCC(=O)O (H-Leu-Leu-[βAla]-OH)
6 | 15% | CC(=O)NC(Cc1ccc(Br)cc1)C(=O)O (racemic)
7 | < 15% | NCCCC(=O)N[C@@H](Cc1cnc[nH]1)C(=O)O
8 | > 30% | CC(C)C[C@H](NC(=O)[C@@H](N)CC(C)C)C(=O)N[C@@H](CC(=O)O)C(=O)O (H-Leu-Leu-Asp-OH)
9 | < 15% | CC[C@H](C)[C@H](N)C(=O)N[C@@H](CO)C(=O)O (H-Ile-Ser-OH)
10 | 15% | CC(C)C[C@H](NC(=O)CN)C(=O)O (racemic)
11 | < 15% | NCC(=O)N[C@@H](Cc1cnc[nH]1)C(=O)NCC(=O)O (H-Gly-His-Gly-OH)
12 | < 15% | CC(C)C[C@H](NC(=O)CCN)C(=O)O
13 | < 15% | C[C@H](NC(=O)[C@H](Cc1cnc[nH]1)NC(=O)CN)C(=O)O (H-Gly-His-Ala-OH)
14 | < 15% | CCC[C@H](N)C(=O)OC
15 | > 30% | CC(C)C[C@H](N)C(=O)N[C@@H](Cc1ccc(O)cc1)C(=O)O
16 | < 15% | C[C@H](NC(=O)OC(C)(C)C)C(=O)NC(C)(C)C(=O)O (Boc-Ala-[Aib]-OH)
17 | < 15% | CC(=O)NCC(=O)N[C@@H](Cc1cnc[nH]1)C(=O)N[C@@H](CCCCN)C(=O)O (Ac-Gly-His-Lys-OH)
18 | < 15% | CC(=O)N[C@@H](Cc1c[nH]c2ccccc12)C(=O)O
19 | < 15% | N[C@@H](CO)C(=O)N[C@@H](CO)C(=O)O (H-Ser-Ser-OH)
20 | < 15% | N[C@@H](CO)C(=O)N[C@@H](CO)C(=O)N[C@@H](CO)C(=O)O (H-Ser-Ser-Ser-OH)
21 | > 30% | CC[C@H](C)[C@H](N)C(=O)N[C@@H](CC(C)C)C(=O)O (H-Ile-Leu-OH)

Row | inhibition | SMILES
22 | < 15% | NCCS(=O)(=O)O
23 | < 15% | COC(=O)[C@@H](N)[C@@H](C)O
24 | < 15% | CSCC[C@H](N)C(=O)N[C@@H](CC(C)C)C(=O)O (H-Met-Leu-OH)
25 | 15% | N[C@H]1CSSC[C@@H](C(=O)O)NC1=O
26 | < 15% | CC(C)(C)OC(=O)NCC(=O)N1CCC[C@H]1C(=O)N1CCC[C@H]1C(=O)O (Boc-Gly-Pro-Pro-OH)
27 | < 15% | N[C@@H](CO)C(=O)NCC(=O)O (H-Ser-Gly-OH)
28 | < 15% | CC[C@H](C)[C@H](N)C(N)=O
29 | 15% | CC(NC(=O)CN)C(=O)O (racemic)
30 | < 15% | NCC(=O)N1CCC[C@H]1C(=O)O (H-Gly-Pro-OH)
31 | < 15% | CSCC[C@H](NC(=O)CN)C(=O)NCC(=O)O (H-Gly-Met-Gly-OH)
32 | > 30% | COC(=O)[C@H](Cc1ccccc1)NC(=O)C[C@H](N)C(=O)O
33 | > 30% | C[C@H](N)C(=O)N[C@@H](CC(N)=O)C(=O)O (H-Ala-Asn-OH)
34 | < 15% | O=C(O)C1CCCCN1 (stereo unspecified)
35 | < 15% | N[C@@H](Cc1c[nH]cn1)C(=O)N[C@@H](CO)C(=O)O (H-His-Ser-OH)
36 | < 15% | CC(C)C[C@H](NC(=O)[C@H](CC(C)C)NC(=O)[C@@H](N)C(C)C)C(=O)O (H-Val-Leu-Leu-OH)
37 | < 15% | CSCC[C@H](NC(=O)[C@@H](N)Cc1ccccc1)C(=O)O (H-Phe-Met-OH)
38 | > 30% | CC(C)(C)OC(=O)N[C@@H](Cc1ccccc1)C(=O)O
39 | < 15% | CSCC[C@@H](N)C(=O)NCC(=O)O (H-[dM]-Gly-OH)
40 | < 15% | CC(C)C[C@H](NC(=O)CN)C(=O)N1C[C@H](O)C[C@H]1C(=O)O (H-Gly-Leu-[Hyp]-OH)
41 | < 15% | CC(C)C[C@H](N)C(=O)NCC(=O)NCC(=O)O (H-Leu-Gly-Gly-OH)
42 | < 15% | NCC(=O)NCCC(=O)NCCS(=O)(=O)O

Row | inhibition | SMILES
43 | < 15% | CC[C@H](C)[C@H](NC(=O)[C@@H](N)CC(C)C)C(=O)O (H-Leu-Ile-OH)
44 | < 15% | O=C(O)[C@H]1CNCCN1
45 | < 15% | N[C@@H](Cc1c[nH]cn1)C(=O)NCC(=O)O (H-His-Gly-OH)
46 | < 15% | NCC(=O)NCCCC(=O)O
47 | < 15% | COC(=O)[C@@H](N)CCCCN
48 | < 15% | NCC(=O)NCC(=O)N[C@@H](CC(=O)O)C(=O)O (H-Gly-Gly-Asp-OH)
49 | < 15% | CC(=O)N[C@@H](COC(C)(C)C)C(=O)O
50 | < 15% | N[C@@H](CS)C(=O)NCC(=O)O
51 | < 15% | CC(C)C[C@@H](NC(=O)CNC(=O)CN)C(=O)O
52 | < 15% | CC(C)C[C@@H](N)C(=O)N[C@@H](CC(C)C)C(=O)O
53 | < 15% | N[C@@H](CO)C(=O)NCC(=O)NCC(=O)O (H-Ser-Gly-Gly-OH)
54 | < 15% | CC(C)C[C@@H](NC(=O)CN)C(=O)O
55 | < 15% | CC(C)C[C@H](NC(=O)[C@@H](NC(=O)[C@@H](N)[C@@H](C)O)C(C)C)C(=O)O (H-Thr-Val-Leu-OH)
56 | < 15% | CSCC[C@H](N)C(=O)N[C@@H](CO)C(=O)O (H-Met-Ser-OH)
57 | > 30% | NCC(=O)N[C@H](Cc1ccccc1)C(=O)O
58 | 15% | CC[C@H](C)[C@H](NC(=O)OCc1ccccc1)C(=O)O
59 | < 15% | CC(C)C[C@H](NC(=O)[C@H](Cc1cnc[nH]1)NC(=O)CN)C(N)=O (H-Gly-His-Leu-NH2)
60 | < 15% | CSCC[C@H](NC(=O)[C@@H](N)[C@@H](C)O)C(=O)O (H-Thr-Met-OH)
61 | < 15% | C[C@H](N)C(=O)N[C@@H](CCC(=O)O)C(N)=O (H-Ala-Glu-NH2)
62 | < 15% | NCC(=O)NCC(=O)NCCC(=O)O (H-Gly-Gly-[βAla]-OH)
63 | < 15% | N[C@@H](Cc1ccc(O)cc1)C(=O)N[C@@H](CCC(=O)O)C(=O)O (H-Tyr-Glu-OH)

Row | inhibition | SMILES
64 | < 15% | CC(C)C(NC(=O)CN)C(=O)O (racemic)
65 | < 15% | CC(C)[C@H](NC(=O)[C@@H](N)Cc1ccccc1)C(=O)O (H-Phe-Val-OH)
66 | < 15% | CC(C)C[C@H](N)C(=O)N1C[C@H](O)C[C@H]1C(=O)O (H-Leu-[Hyp]-OH)
67 | < 15% | NCCCC[C@H](NC(=O)[C@@H](N)CCCCN)C(=O)O
68 | < 15% | CC(C)C[C@H](NC(=O)CCCN)C(=O)O
69 | < 15% | C[C@@H](O)[C@@H](NC(=O)CN)C(=O)O
70 | < 15% | C[C@@H](O)[C@H](N)C(=O)N[C@@H](CCCCN)C(=O)N[C@@H](Cc1ccc(O)cc1)C(=O)O (H-Thr-Lys-Tyr-OH)
71 | < 15% | CC(C)C[C@H](NC(=O)[C@@H](N)CC(C)C)C(=O)N1CCC[C@H]1C(=O)O (H-Leu-Leu-Pro-OH)
72 | < 15% | CC(C)[C@H](NC(=O)CNC(=O)CN)C(=O)O (H-Gly-Gly-Val-OH)
73 | < 15% | CC(C)C[C@H](N)C(=O)NCC(=O)N1CCC[C@H]1C(=O)O (H-Leu-Gly-Pro-OH)
74 | > 30% | CSCC[C@H](NC(=O)[C@H](C)N)C(=O)O (H-Ala-Met-OH)
75 | < 15% | NC(=O)[C@H](Cc1ccccc1)NC(=O)[C@@H](N)CC(=O)O (H-Asp-Phe-NH2)
76 | < 15% | COC(=O)[C@@H](N)C(C)C
77 | < 15% | O=C(O)[C@@H]1CCCN1C(=O)[C@@H]1C[C@@H](O)CN1C(=O)[C@@H]1CCCN1 (H-Pro-[Hyp]-Pro-OH)
78 | 15% | CC(C)CC(NC(=O)C(C)N)C(=O)O (racemic)
79 | < 15% | CN[C@@H](CC(=O)O)C(=O)N[C@@H](Cc1ccccc1)C(N)=O (H-[NMeD]-Phe-NH2)
80 | < 15% | N[C@@H](Cc1c[nH]c2ccccc12)C(=O)N[C@@H](CCC(=O)O)C(=O)O (H-Trp-Glu-OH)
81 | < 15% | NCC(=O)N[C@@H](CC(N)=O)C(=O)O (H-Gly-Asn-OH)
82 | < 15% | NCC(=O)N[C@@H](CC(=O)O)C(=O)O (H-Gly-Asp-OH)

Row | SMILES | inhibition
83 | N[C@@H](Cc1ccc(O)cc1)C(=O)N[C@@H](Cc1ccc(O)cc1)C(=O)NCC(=O)O (H-Tyr-Tyr-Gly-OH) | < 15%
84 | N[C@@H](Cc1c[nH]cn1)C(=O)N[C@@H](Cc1c[nH]cn1)C(=O)O | 15%
85 | CSCC[C@H](NC(=O)[C@@H](N)Cc1ccc(O)cc1)C(=O)NCC(=O)O (H-Tyr-Met-Gly-OH) | < 15%

Each compound was assayed against T1, General amino-acid permease GAP1 (Saccharomyces cerevisiae) (assay: Noncompetitive inhibition of nitrogen-starved wild type sigma1278b yeast Gap1-mediated amino acid uptake at 5 mM after 60 secs relative to L-citrulline). Details: not given.

Row | inhibition | SMILES
86 | 15% | CC(C)C[C@H](NC(=O)[C@H](CC(C)C)NC(=O)CCN)C(=O)O (H-[βAla]-Leu-Leu-OH)
87 | > 30% | CC(C)C[C@H](N)C(=O)N[C@H](CC(C)C)C(=O)O
88 | > 30% | C[C@H](NC(=O)[C@H](Cc1ccccc1)NC(=O)[C@@H](N)CCCNC(=N)N)C(=O)O (H-Arg-Phe-Ala-OH)
89 | > 30% | N=C(N)NCCC[C@H](NC(=O)[C@@H](N)CCCNC(=N)N)C(=O)Nc1ccc2ccccc2c1 (H-Arg-Arg-βNA)
90 | > 30% | N=C(N)NCCC[C@H](N)C(=O)NCC(=O)NCC(=O)O (H-Arg-Gly-Gly-OH)
91 | > 30% | CC(C)C[C@H](NC(=O)CCCCN)C(=O)O
